Test [1] concerns the target T1, hENPP2 (UniProtKB/SwissProt Sequence ref Q13822) (Homo sapiens (Human), UniProt Q13822). In words: LPC hENPP2 assay (choline release, LPC as substrate). Format: biochemical. In outline: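 Detection is coupled: choline oxidase produces peroxide, which HRP uses to form quinoneimine dye from TOOS and 4-aminoantipyrine, read at 555 nm. The reaction is stopped with 20 mM EGTA in the developer mix, then incubated 30 min at room temperature; inhibition lowers signal.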

Test [2] deals with T1, hENPP2. The experiment in a line: FS3 hENPP2 assay (fluorogenic substrate FS-3). Format: biochemical. The conditions noted are these: hENPP2, FS-3 as substrate. As to the method:
Compound IC50 values are determined in a fluorescent hENPP2 (UniProtKB/SwissProt Sequence ref Q13822) biochemical assay using the fluorogenic autotaxin substrate FS-3 as substrate. FS-3 is a doubly labeled analog of LPC wherein the fluorophore is quenched through intramolecular energy transfer. Without hENPP2, the emission of the probe is quenched. If the substrate is hydrolyzed by hENPP2, the emission of the probe is not quenched anymore resulting in a fluorescence increase. Inhibition of hENPP2 by compounds will result in a decrease of the signal.
10 μL of a dilution series of compound, starting from 20 μM highest concentration, ⅕ dilution, is added to the wells. hENPP2 is used at a final concentration of 0.4 μg/mL or 0.64 μg/mL (it will be appreciated by the skilled person that the potency read out is independent of the enzyme concentration). The enzyme is diluted in 50 mM Tris-HCl pH 8.0, 250 mM NaCl, 5 mM KCl, 1 mM MgCl2, 1 mM CaCl2, 0.1% fatty acid free BSA in a total volume of 20 μL. Enzyme mixture is added to compounds and the resulting mixture is incubated for 30 min at room temperature under shaking. The reaction is started by the addition of 20 μL of 0.75 μM FS-3 diluted in the same buffer as described above and the mixture is incubated at 30° C. for 30 min. Fluorescence is read on the Envision (Excitation 485 nm, emission 520 nm).

As usually defined, the IC50 is the concentration needed to halve the response being measured. A lower IC50 goes with greater potency. Take `CCc1nc2ccc(N3CCCC(CN)C3)nn2c1N(C)c1nc(-c2ccc(F)cc2)cs1` (stereo not shown) [Cpd 101, N-(6-(3-(aminomethyl)piperidin-1-yl)-2-ethylimidazo[1,2-b]pyridazin-3-yl)-4-(4-fluorophenyl)-N-methylthiazol-2-amine]: the values for the IC50 in test [1] and in test [2] were over 1000 nM and 25 to 50 nM, respectively.

In the case of `CCc1nc2ccc(N3CCC(NC(=O)OC(C)(C)C)C3)nn2c1N(C)c1nc(-c2ccc(F)cc2)cs1` (stereo not shown) [Cpd 133, tert-butyl 1-(2-ethyl-3-((4-(4-fluorophenyl)thiazol-2-yl)(methyl)amino)imidazo[1,2-b]pyridazin-6-yl)pyrrolidin-3-ylcarbamate], the IC50 in test [1] was over 1000 nM; in test [2], 0.01 to 25 nM.

On to `CCc1nc2ccc(N3CCN(CC(=O)N4CCCC4)CC3)nn2c1N(C)c1nc(-c2ccc(F)cc2)cs1` [Cpd 55, 2-(4-(2-ethyl-3-((4-(4-fluorophenyl)thiazol-2-yl)(methyl)amino)imidazo[1,2-b]pyridazin-6-yl)piperazin-1-yl)-1-(pyrrolidin-1-yl)ethanone], for which the IC50 in test [1] fell in the range of 100 to 500 nM; in test [2], 0.01 to 25 nM.

Take `CCc1nc2cnc(N3CCN(CC(=O)N4CCC4)CC3)cn2c1N(C)c1nc(-c2ccc(F)cc2)c(C#N)s1` [Cpd 4, 2-((6-(4-(2-(azetidin-1-yl)-2-oxoethyl)piperazin-1-yl)-2-ethylimidazo[1,2-a]pyrazin-3-yl)(methyl)amino)-4-(4-fluorophenyl) thiazole-5-carbonitrile]: the results for the IC50 in test [1] and in test [2] were 100 to 500 nM and 0.01 to 25 nM, respectively.

`CCc1nc2ccc(N3CCC(N4CCCCC4)C3)nn2c1N(C)c1nc(-c2ccc(F)cc2)cs1` (stereo not shown) [Cpd 151, N-(2-ethyl-6-(3-(piperidin-1-yl)pyrrolidin-1-yl)imidazo[1,2-b]pyridazin-3-yl)-4-(4-fluorophenyl)-N-methylthiazol-2-amine]: the IC50 in test [1] is over 1000 nM; in test [2], 0.01 to 25 nM.

For `CCc1nc2cnc(N3CCN(CC(=O)NC)CC3)cn2c1N(C)c1nc(-c2ccc(F)cc2)c(C#N)s1` [Cpd 9, 2-(4-(3-((5-cyano-4-(4-fluorophenyl)thiazol-2-yl)(methyl)amino)-2-ethylimidazo[1,2-a]pyrazin-6-yl)piperazin-1-yl)-N-methylacetamide], the IC50 lay within 500 to 1000 nM in test [1] and 0.01 to 25 nM in test [2].

Take `CCc1nc2ccc(N3CCC(NS(C)(=O)=O)CC3)nn2c1N(C)c1nc(-c2ccc(F)cc2)cs1` [Cpd 83, N-(1-(2-ethyl-3-((4-(4-fluorophenyl)thiazol-2-yl)(methyl)amino)imidazo[1,2-b]pyridazin-6-yl)piperidin-4-yl)methane-sulfonamide]: the IC50 in test [1] is over 1000 nM; in test [2], 0.01 to 25 nM.

Take `CCc1nc2ccc(N3CCN4C(=O)OC[C@@H]4C3)nn2c1N(C)c1nc(-c2ccc(F)cc2)cs1` [Compound 61, (S)-7-(2-ethyl-3-((4-(4-fluorophenyl)thiazol-2-yl)(methyl)amino)imidazo[1,2-b]pyridazin-6-yl)tetrahydro-1H-oxazolo[3,4-a]pyrazin-3 (5H)-one]: the IC50 was over 1000 nM in test [1] and 0.01 to 25 nM in test [2].

`CCc1nc2ccc(N3CC4CN(S(=O)(=O)CCCN(C)C)CC4C3)nn2c1N(C)c1nc(-c2ccc(F)cc2)cs1` (stereo not shown) [Cpd 126, N-(6-(5-(3-(dimethylamino)propylsulfonyl)hexahydropyrrolo [3,4-c]pyrrol-2(1H)-yl)-2-ethylimidazo[1,2-b]pyridazin-3-yl)-4-(4-fluorophenyl)-N-methylthiazol-2-amine]: the results for the IC50 in test [1] and in test [2] were 500 to 1000 nM and 0.01 to 25 nM, respectively.

Regarding `CN(c1nc(-c2ccc(F)cc2)cs1)c1c(CCC(N)=O)nc2ccc(C3CCN(S(C)(=O)=O)CC3)nn12` [Compound 197, 3-(3-((4-(4-fluorophenyl)thiazol-2-yl)(methyl)amino)-6-(1-(methylsulfonyl)piperidin-4-yl)imidazo[1,2-b]pyridazin-2-yl)propanamide], the IC50 in test [1] is 500 to 1000 nM; in test [2] it was 0.01 to 25 nM.

Take `CCc1nc2ccc(N3CCC(N4CCS(=O)(=O)CC4)C3)nn2c1N(C)c1nc(-c2ccc(F)cc2)cs1` (stereo not shown) [Cpd 150, {6-[3-(1,1-Dioxo-thiomorpholin-4-yl)-pyrrolidin-1-yl]-2-ethyl-imidazo[1,2-b]pyridazin-3-yl}-[4-(4-fluoro-phenyl)-thiazol-2-yl]-methyl-amine]: the values for the IC50 in test [1] and in test [2] were over 1000 nM and 0.01 to 25 nM, respectively.

For the compound `CCc1nc2ccc(N3CCS(=O)(=O)CC3)nn2c1N(C)c1nc(-c2ccc(F)cc2)cs1` [Compound 79, [6-(1,1-Dioxothiomorpholin-4-yl)-2-ethyl-imidazo[1,2-b]pyridazin-3-yl]-[4-(4-fluoro-phenyl)-thiazol-2-yl]-methyl-amine], the IC50 in test [1] is over 1000 nM; in test [2], 25 to 50 nM.

For `CCc1nc2cnc(N3CCN(CC(=O)N4CC(F)C4)CC3)cn2c1N(C)c1nc(-c2ccc(F)cc2)c(C#N)s1` [Cpd 11, 2-((2-ethyl-6-(4-(2-(3-fluoroazetidin-1-yl)-2-oxoethyl)piperazin-1-yl)imidazo[1,2-a]pyrazin-3-yl)(methyl)amino)-4-(4-fluorophenyl) thiazole-5-carbonitrile], the values for the IC50 in test [1] and in test [2] were 100 to 500 nM and 0.01 to 25 nM, respectively.

Take `CCc1nc2ccc(N3CCC(S(=O)(=O)NC4CC4)CC3)nn2c1N(C)c1nc(-c2ccc(F)cc2)cs1` [Cpd 114, N-cyclopropyl-1-(2-ethyl-3-((4-(4-fluorophenyl)thiazol-2-yl)(methyl)amino)imidazo[1,2-b]pyridazin-6-yl)piperidine-4-sulfonamide]: the results for the IC50 in test [1] and in test [2] were over 1000 nM and 50 to 100 nM, respectively.

As to `CCc1nc2ccc(N3CC(NC(=O)OC(C)(C)C)C3)nn2c1N(C)c1nc(-c2ccc(F)cc2)cs1` [Cpd 154, [1-(2-Ethyl-3-{[4-(4-fluoro-phenyl)-thiazol-2-yl]-methyl-amino}-imidazo[1,2-b]pyridazin-6-yl)-azetidin-3-yl]-carbamic acid tert-butyl ester], the IC50 in test [1] is over 1000 nM; in test [2], 0.01 to 25 nM.

In the case of `CCc1nc2ccc(N3CCC(NS(C)(=O)=O)C3)nn2c1N(C)c1nc(-c2ccc(F)cc2)cs1` (stereo not shown) [Cpd 137, N-(1-(2-ethyl-3-((4-(4-fluorophenyl)thiazol-2-yl)(methyl)amino)imidazo[1,2-b]pyridazin-6-yl)pyrrolidin-3-yl)methane-sulfonamide], the IC50 in test [1] was over 1000 nM; in test [2], 0.01 to 25 nM.

Take `CCc1nc2ccc(N3CCC(NC(=O)OC(C)(C)C)CC3)nn2c1N(C)c1nc(-c2ccc(F)cc2)cs1` [Cpd 81, tert-butyl 1-(2-ethyl-3-((4-(4-fluorophenyl)thiazol-2-yl)(methyl)amino)imidazo[1,2-b]pyridazin-6-yl)piperidin-4-ylcarbamate]: the IC50 in test [1] is over 1000 nM; in test [2] it was 0.01 to 25 nM.

Take `CCc1nc2ccc(N3CCC(N4CCC(O)CC4)C3)nn2c1N(C)c1nc(-c2ccc(F)cc2)cs1` (stereo not shown) [Cpd 152, 1-(1-(2-ethyl-3-((4-(4-fluorophenyl)thiazol-2-yl)(methyl)amino)imidazo[1,2-b]pyridazin-6-yl)pyrrolidin-3-yl)piperidin-4-ol]: the IC50 in test [1] was 500 to 1000 nM; in test [2], 0.01 to 25 nM.

On to `CCc1nc2ccc(N3CCCC(O)C3)nn2c1N(C)c1nc(-c2ccc(F)cc2)cs1` (stereo not shown) [Cpd 91, 1-(2-ethyl-3-((4-(4-fluorophenyl)thiazol-2-yl)(methyl)amino)imidazo[1,2-b]pyridazin-6-yl)piperidin-3-ol], for which the values for the IC50 in test [1] and in test [2] were over 1000 nM and 25 to 50 nM, respectively.

On to `CCc1nc2ccc(C3CCN(CC(=O)N4CC(O)C4)CC3)nn2c1N(C)c1nc(-c2ccc(F)cc2)ccc1C#N` [Cpd 217, 2-((2-ethyl-6-(1-(2-(3-hydroxyazetidin-1-yl)-2-oxoethyl)piperidin-4-yl)imidazo[1,2-b]pyridazin-3-yl)(methyl)amino)-6-(4-fluorophenyl) nicotinonitrile], for which the IC50 in test [1] was over 1000 nM; in test [2], 50 to 100 nM.

As to `CCc1nc2ccc(N3CCC(N4CCOCC4)CC3)nn2c1N(C)c1nc(-c2ccc(F)cc2)cs1` [Cpd 109, N-(2-ethyl-6-(4-morpholino-piperidin-1-yl)imidazo[1,2-b]pyridazin-3-yl)-4-(4-fluorophenyl)-N-methylthiazol-2-amine], the IC50 in test [1] lay within 500 to 1000 nM; in test [2] it was 0.01 to 25 nM.

In the case of `CCc1nc2ccc(N3CCN(CCN4CCCC4=O)CC3)nn2c1N(C)c1nc(-c2ccc(F)cc2)cs1` [Cpd 46, 1-(2-(4-(2-ethyl-3-((4-(4-fluorophenyl)thiazol-2-yl)(methyl)amino)imidazo[1,2-b]pyridazin-6-yl)piperazin-1-yl)ethyl)pyrrolidin-2-one], the results for the IC50 in test [1] and in test [2] were 100 to 500 nM and 0.01 to 25 nM, respectively.

For the compound `CCc1nc2ccc(N3CCC(O)C3)nn2c1N(C)c1nc(-c2ccc(F)cc2)cs1` (stereo not shown) [Cpd 129, 1-(2-ethyl-3-((4-(4-fluorophenyl)thiazol-2-yl)(methyl)amino)imidazo[1,2-b]pyridazin-6-yl)pyrrolidin-3-ol], the IC50 in test [1] was over 1000 nM; in test [2], 0.01 to 25 nM.

These data come from patent US9796719B2, “Compounds and pharmaceutical compositions thereof for the treatment of inflammatory disorders” (GALAPAGOS NV, priority 2013, dated 2017).
